One assay addresses wild-type EGFR enzyme (Homo sapiens, UniProt P00533). As to the kind of experiment: Enzymologic experiment of wild-type (WT) EGFR (TR-FRET). Format: biochemical. To be noted: ATP 0.1 to 5 uM. The method in brief:
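Wild-type EGFR (0.1 to 1 nM final) preincubated with serially diluted compound for 10 minutes at room temperature; reaction stopped with EDTA, then labelled antibody added for 1 hour at room temperature. TR-FRET signal converted to inhibition rates; IC50 from curve fitting across concentrations.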

The test system of a further assay is NCI-H1975 cells. Put plainly: Inhibition of NCI-H1975 cell proliferation (CellTiter-Glo). Format: cell-based. To be noted: for IC50: Homo sapiens, NCI-H1975, 72 h, NCI-H1975 cell proliferation, 72 hours, CellTiter-Glo, read-out: EGFR IC50 (nM) H1975; for Selectivity of wild-type/mutant-type: ratio A431 IC50 / H1975 IC50, cells. (ATP-based viability assays read luminescence as a measure of living cells.)

The target of assay [1] is exon 20 T790M mutant-type EGFR enzyme (Homo sapiens, UniProt P00533, T790M). Put plainly: Enzymologic experiment of T790M mutant-type EGFR (TR-FRET). Format: biochemical. The conditions noted are these: for IC50: T790M EGFR enzyme, TR-FRET, ATP 1 to 10 uM; for Selectivity of wild-type/mutant-type: ratio WT IC50 / T790M IC50, enzyme. The method in brief:
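Compound dilutions preincubated 10 min at room temperature; reaction ended with EDTA, then labeled antibody added for 1 h at room temperature. Inhibition rates derived from TR-FRET fluorescence signal, and IC50 obtained by curve fitting across concentrations.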

The subject of another assay is A431 cells. As to the kind of experiment: Inhibition of A431 cell proliferation (CellTiter-Glo). Format: cell-based. The conditions noted are these: Homo sapiens, A-431, 72 h, read-out: EGFR IC50 (nM) A431. The method in brief:
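Viability read as CellTiter-Glo luminescence; IC50 by curve fitting of inhibition rates.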

Drawing on US10428081B2, “EGFR inhibitor, preparation method and use thereof” (Shanghai Hansoh Biomedical Co., Ltd., priority 2014, dated 2019), this text covers IC50 and Selectivity of wild-type/mutant-type for twelve molecules.

exon 20 T790M mutant-type EGFR enzyme, sequence (P00533 25-1210 T790M): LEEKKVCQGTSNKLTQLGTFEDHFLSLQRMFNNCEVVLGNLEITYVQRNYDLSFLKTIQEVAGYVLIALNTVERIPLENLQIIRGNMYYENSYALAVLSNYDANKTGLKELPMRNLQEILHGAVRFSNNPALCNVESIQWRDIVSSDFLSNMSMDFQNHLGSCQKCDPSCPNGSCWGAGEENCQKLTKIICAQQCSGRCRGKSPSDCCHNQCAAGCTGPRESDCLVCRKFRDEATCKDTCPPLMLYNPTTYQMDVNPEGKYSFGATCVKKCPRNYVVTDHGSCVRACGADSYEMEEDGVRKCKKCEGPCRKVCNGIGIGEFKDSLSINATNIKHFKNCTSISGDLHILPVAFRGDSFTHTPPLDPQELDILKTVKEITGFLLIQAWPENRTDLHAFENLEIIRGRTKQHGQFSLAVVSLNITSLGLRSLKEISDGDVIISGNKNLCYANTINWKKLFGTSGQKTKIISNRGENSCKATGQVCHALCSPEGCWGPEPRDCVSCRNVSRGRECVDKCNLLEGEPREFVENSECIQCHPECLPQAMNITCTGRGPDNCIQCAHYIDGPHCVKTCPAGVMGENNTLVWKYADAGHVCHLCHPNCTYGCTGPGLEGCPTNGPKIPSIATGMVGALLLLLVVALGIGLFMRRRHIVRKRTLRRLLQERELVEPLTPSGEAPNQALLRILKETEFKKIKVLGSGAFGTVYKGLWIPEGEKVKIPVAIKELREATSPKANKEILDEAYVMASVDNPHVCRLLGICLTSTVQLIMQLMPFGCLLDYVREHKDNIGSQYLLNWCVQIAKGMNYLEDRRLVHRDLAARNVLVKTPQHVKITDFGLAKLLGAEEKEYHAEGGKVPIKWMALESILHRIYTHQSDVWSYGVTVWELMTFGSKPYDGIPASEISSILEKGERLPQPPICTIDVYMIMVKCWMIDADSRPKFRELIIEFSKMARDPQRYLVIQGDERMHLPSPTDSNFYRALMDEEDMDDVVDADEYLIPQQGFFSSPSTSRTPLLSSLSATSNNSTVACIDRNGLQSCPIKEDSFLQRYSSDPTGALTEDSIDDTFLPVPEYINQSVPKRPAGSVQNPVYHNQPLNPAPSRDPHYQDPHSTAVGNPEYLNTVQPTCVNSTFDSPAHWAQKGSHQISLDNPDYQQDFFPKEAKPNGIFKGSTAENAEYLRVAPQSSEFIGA
wild-type EGFR enzyme, sequence (P00533 25-1210): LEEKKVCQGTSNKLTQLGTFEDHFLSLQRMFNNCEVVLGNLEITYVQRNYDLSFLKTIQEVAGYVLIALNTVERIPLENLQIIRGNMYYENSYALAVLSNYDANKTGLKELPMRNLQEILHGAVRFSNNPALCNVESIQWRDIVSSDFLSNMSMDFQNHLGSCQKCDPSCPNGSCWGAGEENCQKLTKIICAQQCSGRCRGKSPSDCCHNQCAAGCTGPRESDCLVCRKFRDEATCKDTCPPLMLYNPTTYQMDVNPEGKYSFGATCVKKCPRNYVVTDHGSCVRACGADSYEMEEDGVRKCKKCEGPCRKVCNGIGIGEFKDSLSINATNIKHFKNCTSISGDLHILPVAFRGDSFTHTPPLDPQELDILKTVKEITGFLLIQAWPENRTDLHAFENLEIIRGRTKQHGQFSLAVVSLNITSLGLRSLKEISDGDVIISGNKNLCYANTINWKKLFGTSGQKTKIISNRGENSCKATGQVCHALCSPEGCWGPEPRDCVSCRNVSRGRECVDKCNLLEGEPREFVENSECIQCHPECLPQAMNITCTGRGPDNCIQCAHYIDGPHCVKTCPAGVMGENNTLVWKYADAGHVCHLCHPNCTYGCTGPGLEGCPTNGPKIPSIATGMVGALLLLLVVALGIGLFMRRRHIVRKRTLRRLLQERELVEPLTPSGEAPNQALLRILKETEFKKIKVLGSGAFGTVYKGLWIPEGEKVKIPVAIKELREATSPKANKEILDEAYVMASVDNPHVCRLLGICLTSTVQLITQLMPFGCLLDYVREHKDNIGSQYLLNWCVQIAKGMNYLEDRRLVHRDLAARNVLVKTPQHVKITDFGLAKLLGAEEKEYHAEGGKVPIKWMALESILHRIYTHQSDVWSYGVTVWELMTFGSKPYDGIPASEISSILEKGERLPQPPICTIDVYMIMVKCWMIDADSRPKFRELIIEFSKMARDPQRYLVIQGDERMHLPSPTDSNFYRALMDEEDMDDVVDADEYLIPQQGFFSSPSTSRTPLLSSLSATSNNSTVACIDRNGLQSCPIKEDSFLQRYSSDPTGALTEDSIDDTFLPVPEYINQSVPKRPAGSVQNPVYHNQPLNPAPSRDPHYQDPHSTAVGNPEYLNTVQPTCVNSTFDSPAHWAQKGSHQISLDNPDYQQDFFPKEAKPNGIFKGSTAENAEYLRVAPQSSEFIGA

For the molecule `C=CC(=O)Nc1cc(Nc2nccc(-c3cn(C)c4cc(C5CC5)ccc34)n2)c(OC)cc1N(C)CCN(C)C` [Example 22, N-(5-((4-(6-cyclopropyl-1-methyl-1H-indol-3-yl)pyrimidin-2-yl)amino)-2-((2-(dimethylamino)ethyl)(methyl)amino)-4-methoxyphenyl)acrylamide], the IC50 (as a rule, the concentration that gives 50% inhibition) was determined as 7.44 nM against wild-type EGFR enzyme, 13.2 nM in the assay on NCI-H1975 cells, 0.71 nM in assay [1] and 800 nM with A431 cells. For the same molecule, the Selectivity of wild-type/mutant-type in the assay with NCI-H1975 cells is recorded as 60.6; in assay [1], 10.4.
In the case of `C=CC(=O)Nc1cc(Nc2nccc(-n3nc(C)c4cc(OC)c(OC)cc43)n2)c(OC)cc1N(C)CCN(C)C` [Example 53, N-(5-((4-(5,6-dimethoxy-3-methyl-1H-indazol-1-yl)pyrimidin-2-yl)amino)-2-((2-(dimethylamino)ethyl)(methyl)amino)-4-methoxyphenyl)acrylamide], the IC50 against wild-type EGFR enzyme came to 34.1 nM; in the assay on NCI-H1975 cells, 20 nM; in assay [1], 2.53 nM; in the assay with A431 cells, 628 nM. The Selectivity of wild-type/mutant-type with NCI-H1975 cells is listed as 31.38; in assay [1] it was 13.50.
For `C=CC(=O)Nc1cc(Nc2ncc(C(F)(F)F)c(-n3nc(C4CC4)c4cc(OC)ccc43)n2)c(OC)cc1N(C)CCN(C)C` [Example 114, N-(5-((4-(3-cyclopropyl-5-methoxy-1H-indazol-1-yl)-5-(trifluoromethyl)pyrimidin-2-yl)amino)-2-((2-(dimethylamino)ethyl)(methyl)amino)-4-methoxyphenyl)acrylamide], the IC50 against wild-type EGFR enzyme was found to be 42 nM; in the assay on NCI-H1975 cells it was 11.6 nM; in assay [1], 2.28 nM; in the assay with A431 cells, 122 nM. For the same molecule, the results for the Selectivity of wild-type/mutant-type (in the assay with NCI-H1975 cells; in assay [1]) were 10.47 and 18.40, respectively.
Take `C=CC(=O)Nc1cc(Nc2nccc(-c3c[nH]c4c(C5CC5)cccc34)n2)c(OC)cc1N(C)CCN(C)C` [Example 92, N-(5-((4-(7-cyclopropyl-1H-indol-3-yl)pyrimidin-2-yl)amino)-2-((2-(dimethylamino)ethyl)(methyl)amino)-4-methoxyphenyl)acrylamide]: the IC50 on wild-type EGFR enzyme is 0.4 nM; in the assay with NCI-H1975 cells it was 1.95 nM; in assay [1], 0.16 nM; with A431 cells it was 9.22 nM. Also, the Selectivity of wild-type/mutant-type was 4.73 in the assay on NCI-H1975 cells and 2.5 in assay [1].
For `C=CC(=O)Nc1cc(Nc2nccc(-n3cnc4cc(OC)ccc43)n2)c(OC)cc1N(C)CCN1CCCC1` [Example 138, N-(4-methoxy-5-((4-(5-methoxy-1H-benzo[d]imidazol-1-yl)pyrimidin-2-yl)amino)-2-(methyl(2-(pyrrolidin-1-yl)ethyl)amino)phenyl)acrylamide], the half-inhibitory concentration (IC50) against wild-type EGFR enzyme was 4.92 nM; in the assay on NCI-H1975 cells, 3.37 nM; in assay [1], 0.5 nM; in the assay with A431 cells, 408 nM. The Selectivity of wild-type/mutant-type in the assay on NCI-H1975 cells was determined as 121.22; in assay [1], 9.84.
For `C=CC(=O)Nc1cc(Nc2nccc(-n3ncc4ccc(OC)cc43)n2)c(OC)cc1N(C)CCN(C)C` [Example 42, N-(2-((2-(dimethylamino)ethyl)(methyl)amino)-4-methoxy-5-((4-(6-methoxy-1H-indazol-1-yl)pyrimidin-2-yl)amino)phenyl)acrylamide], the IC50 against wild-type EGFR enzyme worked out at 0.82 nM; in the assay with NCI-H1975 cells it was 5 nM; in assay [1], 0.48 nM; in the assay on A431 cells, 76.3 nM. Further, the Selectivity of wild-type/mutant-type with NCI-H1975 cells is listed as 15.25; in assay [1], 1.71.
Turning to `C=CC(=O)Nc1cc(Nc2nccc(-n3ncc4cc(C#N)ccc43)n2)c(OC)cc1N(C)CCN(C)C` [Example 50, N-(5-((4-(5-cyano-1H-indazol-1-yl)pyrimidin-2-yl)amino)-2-((2-(dimethylamino)ethyl)(methyl)amino)-4-methoxyphenyl)acrylamide], the IC50 stood at 6.39 nM at wild-type EGFR enzyme, 6.14 nM with NCI-H1975 cells, 0.66 nM in assay [1] and 503 nM with A431 cells. The Selectivity of wild-type/mutant-type worked out at 81.87 in the assay with NCI-H1975 cells and 9.68 in assay [1].
With `C=CC(=O)Nc1cc(Nc2ncc(C(F)(F)F)c(-n3nc(CC)c4cc(C#N)ccc43)n2)c(OC)cc1N(C)CCN(C)C` [Example 117, N-(5-((4-(5-cyano-3-ethyl-1H-indazol-1-yl)-5-(trifluoromethyl)pyrimidin-2-yl)amino)-2-((2-(dimethylamino)ethyl)(methyl)amino)-4-methoxyphenyl)acrylamide], the IC50 against wild-type EGFR enzyme is 43.3 nM; in the assay on NCI-H1975 cells, 29.9 nM; in assay [1], 0.61 nM; with A431 cells, 199 nM. In addition, the Selectivity of wild-type/mutant-type with NCI-H1975 cells worked out at 6.65; in assay [1], 71.05.
For `C=CC(=O)Nc1cc(Nc2nccc(-c3cn(C)c4cc(F)c(F)cc34)n2)c(OC)cc1N(C)CCN(C)C` [Example 28, N-(5-((4-(5,6-difluoro-1-methyl-1H-indol-3-yl)pyrimidin-2-yl)amino)-2-((2-(dimethylamino)ethyl)(methyl)amino)-4-methoxyphenyl)acrylamide], the IC50 stood at 1.89 nM against wild-type EGFR enzyme, 6.4 nM in the assay with NCI-H1975 cells, 1.83 nM in assay [1] and 272 nM in the assay on A431 cells. Also, the Selectivity of wild-type/mutant-type in the assay with NCI-H1975 cells stood at 42.52; in assay [1], 1.0.
`C=CC(=O)Nc1cc(Nc2nccc(-c3cn(S(=O)(=O)N(C)C)c4ccccc34)n2)c(OC)cc1N(C)CCN(CC)CC` [Example 103, N-(2-((2-(diethylamino)ethyl)(methyl)amino)-5-((4-(1-(N,N-dimethylsulfamoyl)-1H-indol-3-yl)pyrimidin-2-yl)amino)-4-methoxyphenyl)acrylamide]: the IC50 against wild-type EGFR enzyme worked out at 1.61 nM; in the assay with NCI-H1975 cells, 1.95 nM; in assay [1], 0.24 nM; with A431 cells, 98.6 nM. Further, the Selectivity of wild-type/mutant-type in the assay on NCI-H1975 cells turned out to be 50.55; in assay [1] it was 6.71.
Regarding `C=CC(=O)Nc1cc(Nc2nccc(-n3cnc4ccccc43)n2)c(OC)cc1N(C)CCN(C)C` [Example 120, N-(5-((4-(1H-benzo[d]imidazol-1-yl)pyrimidin-2-yl)amino)-2-((2-(dimethylamino)ethyl)(methyl)amino)-4-methoxyphenyl)acrylamide], the half-inhibitory concentration (IC50) against wild-type EGFR enzyme is 3.66 nM; with NCI-H1975 cells it was 4.91 nM; in assay [1], 1.05 nM; in the assay on A431 cells, 115 nM. In addition, the Selectivity of wild-type/mutant-type was 23.44 in the assay on NCI-H1975 cells and 3.49 in assay [1].
In the case of `C=CC(=O)Nc1cc(Nc2nccc(-c3c[nH]c4ccccc34)n2)c(OC(F)F)cc1N(C)CCN(C)C` [Example 8, N-(5-((4-(1H-indol-3-yl)pyrimidin-2-yl)amino)-4-(difluoromethoxy)-2-((2-(dimethylamino)ethyl)(methyl)amino)phenyl)acrylamide], the IC50 against wild-type EGFR enzyme is 3.64 nM; in the assay on NCI-H1975 cells it was 5.21 nM; in assay [1], 0.42 nM; in the assay on A431 cells, 56.2 nM. The Selectivity of wild-type/mutant-type came to 10.8 in the assay with NCI-H1975 cells and 8.8 in assay [1].
